Values quoted from earlier work in PubChem BioAssay AID1259409 (Chemical Carcinogenesis Research Information System (CCRIS), 2018).
“And” between values parts separate entries of the source, which are not always exact repeats. Equal entries are not always repeated.

Tested on: rodent chemically induced tumor inhibition, incidence and multiplicity
Test: CCRIS tumor inhibitor studies

S=C=NCCc1ccccc1
tumour outcome (control, treated, inhibition, significance) (Carcinogen: 4-(N-NITROSOMETHYLAMINO)-1-(3-PYRIDYL)-1-BUTANONE, 64091-91-4, Dose [Inhibitor]: 0, 3 UMOL/G/DIET BEGINNING 1 WK PRIOR TO CARCINOGEN TREATMENT AND CONTINUING FOR 21 WK (STUDY DURATION: 104 WK), Route [Inhibitor]: ORAL, Species: RAT, Strain/Sex: F344/MALE, Target Tissue: Type of Lesion: NASAL CAVITY: BENIGN TUMOR, Dose [Carcinogen]: 1.76 MG/KG 3/WK FOR 20 WK, Promoter: NONE USED): 8/40 (20%), 6/40 (15%), 25%, not calculated | tumour outcome (control, treated, inhibition, significance) (Carcinogen: 4-(N-NITROSOMETHYLAMINO)-1-(3-PYRIDYL)-1-BUTANONE, 64091-91-4, Dose [Inhibitor]: 0, 3 UMOL/G/DIET BEGINNING 1 WK PRIOR TO CARCINOGEN TREATMENT AND CONTINUING FOR 21 WK (STUDY DURATION: 104 WK), Route [Inhibitor]: ORAL, Species: RAT, Strain/Sex: F344/MALE, Target Tissue: Type of Lesion: NASAL CAVITY: SQUAMOUS-CELL CARCINOMA, Dose [Carcinogen]: 1.76 MG/KG 3/WK FOR 20 WK, Promoter: NONE USED): 3/40 (8%), 1/40 (3%), 63%, not calculated | tumour outcome (control, treated, inhibition, significance) (Carcinogen: 4-(N-NITROSOMETHYLAMINO)-1-(3-PYRIDYL)-1-BUTANONE, 64091-91-4, Dose [Inhibitor]: 0, 5 UMOL/D FOR 4 CONSECUTIVE DAYS (STUDY DURATION: 16.5 WK), Route [Inhibitor]: GAVAGE, Species: MOUSE, Strain/Sex: STRAIN-A/FEMALE, Target Tissue: Type of Lesion: LUNG: ADENOMA, Dose [Carcinogen]: 10 UMOL ONCE 2 HR POST LAST AGENT DOSE, Promoter: NONE USED): 100%, 89%, 11%, not calculated and 100%, 93%, 7%, not calculated | tumour outcome (control, treated, inhibition, significance) (Carcinogen: 4-(N-NITROSOMETHYLAMINO)-1-(3-PYRIDYL)-1-BUTANONE, 64091-91-4, Dose [Inhibitor]: 0, 25 UMOL/D FOR 4 CONSECUTIVE DAYS (STUDY DURATION: 16.5 WK), Route [Inhibitor]: GAVAGE, Species: MOUSE, Strain/Sex: STRAIN-A/FEMALE, Target Tissue: Type of Lesion: LUNG: ADENOMA, Dose [Carcinogen]: 10 UMOL ONCE 2 HR POST LAST AGENT DOSE, Promoter: NONE USED): 100%, 30%, 70%, p<0.01 | tumour outcome (control, treated, inhibition, significance) (Carcinogen: 7,12-DIMETHYLBENZ[A]ANTHRACENE, 57-97-6, Dose [Inhibitor]: 0, 600 PPM IN DIET FOR DURATION OF STUDY BEGINNING 1 WK PRIOR TO CARCINOGEN DOSE (STUDY DURATION: 107 D), Route [Inhibitor]: ORAL, Species: RAT, Strain/Sex: SPRAGUE-DAWLEY/FEMALE, Target Tissue: Type of Lesion: MAMMARY GLAND: ADENOCARCINOMA, Dose [Carcinogen]: 12 MG ONCE, Promoter: NONE USED): 70%, 85%, -21%, not significant | tumour outcome (control, treated, inhibition, significance) (Carcinogen: 7,12-DIMETHYLBENZ[A]ANTHRACENE, 57-97-6, Dose [Inhibitor]: 0, 1200 PPM IN DIET FOR DURATION OF STUDY BEGINNING 1 WK PRIOR TO CARCINOGEN DOSE (STUDY DURATION: 107 D), Route [Inhibitor]: ORAL, Species: RAT, Strain/Sex: SPRAGUE-DAWLEY/FEMALE, Target Tissue: Type of Lesion: MAMMARY GLAND: ADENOCARCINOMA, Dose [Carcinogen]: 12 MG ONCE, Promoter: NONE USED): 70%, 75%, -7%, not significant | tumour outcome (control, treated, inhibition, significance) (Carcinogen: 7,12-DIMETHYLBENZ[A]ANTHRACENE, 57-97-6, Dose [Inhibitor]: 5.5 MG/G DIET AT AGE 9 WK SIMULTANEOUSLY WITH CARCINOGEN 3/WK FOR 4 WK (STUDY DURATION: 20 WK), Route [Inhibitor]: ORAL, Species: MOUSE, Strain/Sex: ICR/FEMALE, Target Tissue: Type of Lesion: FORESTOMACH: TUMOR, Dose [Carcinogen]: 0.05 MG/G DIET AT AGE 9 WK 3/WK FOR 4 WK, Promoter: NONE USED): 93%, 12%, 87%, p<0.001 | tumour outcome (control, treated, inhibition, significance) (Carcinogen: 7,12-DIMETHYLBENZ[A]ANTHRACENE, 57-97-6, Dose [Inhibitor]: 5.5 MG/G DIET AT AGE 9 WK SIMULTANEOUSLY WITH CARCINOGEN 3/WK FOR 4 WK (STUDY DURATION: 20 WK), Route [Inhibitor]: ORAL, Species: MOUSE, Strain/Sex: ICR/FEMALE, Target Tissue: Type of Lesion: LUNG: ADENOMA, Dose [Carcinogen]: 0.05 MG/G DIET AT AGE 9 WK 3/WK FOR 4 WK, Promoter: NONE USED): 100%, 89%, 11%, not significant | tumour outcome (control, treated, inhibition, significance) (Carcinogen: 7,12-DIMETHYLBENZ[A]ANTHRACENE, 57-97-6, Dose [Inhibitor]: 55 MG ONCE 4 HR BEFORE DMBA TREATMENT (STUDY DURATION: 18 WK), Route [Inhibitor]: INTRAGASTRIC, Species: RAT, Strain/Sex: SPRAGUE-DAWLEY/FEMALE, Target Tissue: Type of Lesion: MAMMARY GLAND: TUMOR, Dose [Carcinogen]: 12 MG IN 1 ML OLIVE OIL AT AGE 7 WK, Promoter: NONE USED): 100%, 43%, 57%, p<0.001 | tumour outcome (control, treated, inhibition, significance) (Carcinogen: BENZO[A]PYRENE [50-32-8], Dose [Inhibitor]: 0.3 UMOL/G IN DIET FOR 10 WK BEGINNING 1 WK PRIOR TO FIRST CARCINOGEN DOSE (STUDY DURATION: 28 WK), Route [Inhibitor]: ORAL, Species: MOUSE, Strain/Sex: A/J/FEMALE, Target Tissue: Type of Lesion: LUNG: TUMOR, Dose [Carcinogen]: 3 UMOL IN 0.1 ML COTTONSEED OIL 1X/WK FOR 8 WK (STUDY DURATION: 28 WK), Promoter: NONE): 100%, 100%, 0%, not calculated | tumour outcome (control, treated, inhibition, significance) (Carcinogen: BENZO[A]PYRENE [50-32-8], Dose [Inhibitor]: 1 UMOL/G IN DIET FOR 10 WK BEGINNING 1 WK PRIOR TO FIRST CARCINOGEN DOSE (STUDY DURATION: 28 WK), Route [Inhibitor]: ORAL, Species: MOUSE, Strain/Sex: A/J/FEMALE, Target Tissue: Type of Lesion: LUNG: TUMOR, Dose [Carcinogen]: 3 UMOL IN 0.1 ML COTTONSEED OIL 1X/WK FOR 8 WK (STUDY DURATION: 28 WK), Promoter: NONE): 100%, 100%, 0%, not calculated | tumour outcome (control, treated, inhibition, significance) (Carcinogen: BENZO[A]PYRENE [50-32-8], Dose [Inhibitor]: 3 UMOL/G IN DIET FOR 10 WK BEGINNING 1 WK PRIOR TO FIRST CARCINOGEN DOSE (STUDY DURATION: 28 WK), Route [Inhibitor]: ORAL, Species: MOUSE, Strain/Sex: A/J/FEMALE, Target Tissue: Type of Lesion: LUNG: TUMOR, Dose [Carcinogen]: 3 UMOL IN 0.1 ML COTTONSEED OIL 1X/WK FOR 8 WK (STUDY DURATION: 28 WK), Promoter: NONE): 100%, 100%, 0%, not calculated | outcome (Carcinogen: BENZO[A]PYRENE, 50-32-8, Dose [Inhibitor]: 0, 5 UMOL IN ACETONE 4 HR PRIOR TO CARCINOGEN DOSE (STUDY DURATION: 20 WK), Route [Inhibitor]: DERMAL, Species: MOUSE, Strain/Sex: STRAIN-A/FEMALE, Target Tissue: Type of Lesion: SKIN: TUMOR, Dose [Carcinogen]: 0.1 UMOL IN ACETONE ONCE, Promoter: 12-O-TETRADECANOYLPHORBOL-13-ACETATE, 16561-29-8): 70%, 65%, 7%, not significant at 15 wk; 95%, 85%, 11%, not significant at 20 wk | tumour outcome (control, treated, inhibition, significance) (Carcinogen: BENZO[A]PYRENE, 50-32-8, Dose [Inhibitor]: 0, 6.7 UMOL IN COTTONSEED OIL 15 MIN PRIOR TO CARCINOGEN DOSES 1/2 WK FOR 3 TREATMENTS (STUDY DURATION: 26 WK), Route [Inhibitor]: GAVAGE, Species: MOUSE, Strain/Sex: STRAIN-A/FEMALE, Target Tissue: Type of Lesion: FORESTOMACH: TUMOR, Dose [Carcinogen]: 7.9 UMOL IN COTTONSEED OIL 1/2 WK FOR 3 TREATMENTS, Promoter: NONE USED): 95%, 90%, 5%, not significant | tumour outcome (control, treated, inhibition, significance) (Carcinogen: BENZO[A]PYRENE, 50-32-8, Dose [Inhibitor]: 0, 6.7 UMOL IN COTTONSEED OIL 15 MIN PRIOR TO CARCINOGEN DOSES 1/2 WK FOR 3 TREATMENTS (STUDY DURATION: 26 WK), Route [Inhibitor]: GAVAGE, Species: MOUSE, Strain/Sex: STRAIN-A/FEMALE, Target Tissue: Type of Lesion: LUNG: TUMOR, Dose [Carcinogen]: 7.9 UMOL IN COTTONSEED OIL 1/2 WK FOR 3 TREATMENTS, Promoter: NONE USED): 95%, 90%, 5%, not significant
